Assay results published in patent US7186725B2, “Anti-inflammatory compositions and methods” (Genzyme Corporation, priority 2003, dated 2007).
Like-named read-outs stand apart in the source and are kept apart here.

Experiments:
purified rat T cells = test: Concanavalin A activated T-cell proliferation assay ([3H] thymidine uptake); type: cell-based; details: 96 h, @ 1 mM
Method: Compounds of Formula I (above), based on an ethyl dimethylaminopropylurea (1) parent structure, have been discovered as active agents against a modified Concanavalin A activated T-cell proliferation assay using purified rat T-cells. These cells were incubated for 4 days and pulsed with [^3H] thymidine for the last 16 hrs of incubation. [^3H] Thymidine uptake was measured as the mean counts per minute (cpm) of duplicate experimental cultures. The compounds of the present invention were discovered by screening a compound library. (directed analogs of parent compound 1) using an assay designed to identify inhibitors of Concanavalin A stimulated T-cell proliferation. Normal dermal fibroblasts and kidney epithelial cell toxicity assays were run on active compounds to eliminate non-selective cytotoxic compounds.

[1] = tested on: Autoimmune Encephalomyelitis (EAE); test: Autoimmune Encephalomyelitis (EAE) model, PLP 139-151 immunized mice; type: in vivo, SJL/J mice
[2] = tested on: Distal colitis induced by DNBS; test: Inflammatory Bowel Disease: DNBS-induced distal colitis in rats; type: in vivo; details: rat
Method: CM Hogaboam et al., Eur. J. Pharmacol.; 309; 261 (1996) Groups of 3 derived-male, overnight-fasted rats weighing 150±10 g are used. Distal colitis is induced by intra-colonic instillation of 0.5 ml/rat of DNBS (2,4-dinitrobenzene sulfonic acid, 60 mg/ml in ethanol 30%) after which air (2 ml) is gently injected through the cannula to ensure that the solution remains in the colon. […] The animals are sacrificed 24 hours after the final dose of test compound administration and each colon is removed and weighed.

IL-6 = test: Cellular assay: Mediator Release, IL-6; type: cell-based; details: IL-6 release
[3] = tested on: Septic Shock, Lipopolysaccharide; test: Septic Shock, Lipopolysaccharide plus galactosamine in mice; type: in vivo, C57/BL mice
Method: Groups of 4 or 6 C57/BL mice weighing 18–20g were used. […] The blank control group was only applied 10% cremophor/10% ethanol IP and without LPS challenge. Mortality is recorded every 12 hours after challenge over a 3-day period. Protection of mortality by 50 percent or more (≧50%) indicates significant activity.

Interferon-γ = test: Cellular assay: Mediator Release, Interferon-γ; type: cell-based
IL-5 = test: Cellular assay: Mediator Release, IL-5; type: cell-based; details: IL-5 release
TNF-α = test: Cellular assay: Mediator Release, TNF-α; type: cell-based
IL-10 = test: Cellular assay: Mediator Release, IL-10; type: cell-based; details: IL-10 release
NF-κB = test: Cellular assay: Transcription Response, NF-κB; type: cell-based
IL-1β = test: Cellular assay: Mediator Release, IL-1β; type: cell-based; details: IL-1β release
[4] = Table 1, read-out: Thymidine Uptake (% Reduction @ 1 mM)
[5] = Table 3, read-out: Thymidine Uptake (% Reduction @ 1 mM)
[6] = Table 2, read-out: Thymidine Uptake (% Reduction @ 1 mM)
[7] = 25 mg/kg daily day 1 to 16, FIG. 1

CCNC(=O)NOC(C)(C)C [Compound 18]
inhibition at 1000 µM (purified rat T cells; [4]): 25%

CCNC(=O)Nc1cnccn1 [Compound 20]
inhibition at 1000 µM (purified rat T cells; [4]): 55%

CCNC(=O)Nc1cc[nH]n1 [Compound 11]
inhibition at 1000 µM (purified rat T cells; [4]): 35%

CN(C)CCCNC(=O)Nc1ncc([N+](=O)[O-])s1 [Compound 50]
inhibition at 1000 µM (purified rat T cells; [5]): 22%

CCNC(=O)Nc1cccc(OC(F)(F)F)c1 [Compound 10]
inhibition at 1000 µM (purified rat T cells; [4]): 30%

CCNC(=O)NCC1CCCO1 (stereo not shown) [Compound 3]
inhibition at 1000 µM (purified rat T cells; [4]): 26%

CN(C)CCCNC(=O)NCCc1cccs1 [Compound 55]
inhibition at 1000 µM (purified rat T cells; [5]): 17%

CCNC(=O)Nc1ccc(C(N)=O)cc1 [Compound 16]
inhibition at 1000 µM (purified rat T cells; [4]): 27%

CN(C)CCCNC(=O)Nc1ncnc2[nH]ncc12 [Compound 51]
inhibition at 1000 µM (purified rat T cells; [5]): 86%

CCNC(=O)Nc1c(F)c(F)c(C#N)c(F)c1F [Compound 15]
inhibition at 1000 µM (purified rat T cells; [4]): 26%

COc1ccc(CNC(=O)NCCCN(C)C)c(OC)c1 [Compound 47]
inhibition at 1000 µM (purified rat T cells; [5]): 20%

C=CCNC(=O)NCC [Compound 24]
inhibition at 1000 µM (purified rat T cells; [4]): 18%

CN(C)CCCNC(=O)NCCC(c1ccccc1)c1ccccc1 [Compound 44]
inhibition at 1000 µM (purified rat T cells; [5]): 21%

CCNC(=O)NCCCN1CCC(Cc2ccccc2)CC1 [Compound 33]
inhibition at 1000 µM (purified rat T cells; [6]): 17%

CN(C)CCCNC(=O)Nc1nccc2ccccc12 [Compound 49]
inhibition at 1000 µM (purified rat T cells; [5]): 36%

CCNC(=O)NCCCN1CCN(c2cccc(C)c2C)CC1 [Compound 57, 1-{3′-[4-(2,3-xylyl)-piperazin-1-yl]-propyl}-3-ethyl urea]
effect on disease onset (ADSS) [1, 7]: had an effect on disease onset
effect on maximum severity (ADSS) [1, 7]: not on maximum severity

CCNC(=O)NCCCN1CCc2ccccc2C1Cc1ccccc1 (stereo not shown) [Compound 34]
inhibition at 1000 µM (purified rat T cells; [6]): 12%

CCNC(=O)Nc1cccc(S(N)(=O)=O)c1 [Compound 14]
inhibition at 1000 µM (purified rat T cells; [4]): 18%

CN(C)CCCNC(=O)Nc1nnn[nH]1 [Compound 52]
inhibition at 1000 µM (purified rat T cells; [5]): 14%

CN(C)CCCNC(=O)NCC12CCC3CC(CC1C3)C2 (stereo not shown) [Compound 40]
inhibition at 1000 µM (purified rat T cells; [5]): 20%

CCNC(=O)NCCCN1CCN(c2ccccc2)C(C)C1 (stereo not shown) [Compound 38]
inhibition at 1000 µM (purified rat T cells; [6]): 13%

CCNC(=O)NCCCN1CCN(c2cc(Cl)ccc2C)CC1 [Compound 36]
inhibition at 1000 µM (purified rat T cells; [6]): 18%

CN(C)CCCNC(=O)NCc1ccccc1Cl [Compound 46]
inhibition at 1000 µM (purified rat T cells; [5]): 21%

CCNC(=O)NCCCN1CC(C)OC(C)C1 (stereo not shown) [Compound 28]
inhibition at 1000 µM (purified rat T cells; [6]): 13%

CCNC(=O)NCCCN1CCN(c2ncc(C(F)(F)F)cc2Cl)CC1 [Compound 32]
inhibition at 1000 µM (purified rat T cells; [6]): 27%

O=C(O)c1cc(/N=N/c2ccc(S(=O)(=O)Nc3ccccn3)cc2)ccc1O [Sulfasalazine, reference compound]
Ave. (colon to 100 g body weight ratio) ([2]; PO 300 mg/kg × 7): 0.551
Inhibition (of net increase of colon to 100 g body weight ratio, relative to vehicle with DNBS) ([2]; PO × 7): 41%
Net Inc. (net increase of colon to 100 g body weight ratio) ([2]; PO × 7): 0.254

CCNC(=O)Nn1cnnc1 [Compound 22]
inhibition at 1000 µM (purified rat T cells; [4]): 19%

COc1ccccc1CNC(=O)NCCCN(C)C [Compound 43]
inhibition at 1000 µM (purified rat T cells; [5]): 24%

CCNC(=O)NCC(c1ccccc1)c1ccccc1 [Compound 4]
inhibition at 1000 µM (purified rat T cells; [4]): 26%

CCNC(=O)NCCc1cccc(Cl)c1 [Compound 5]
inhibition at 1000 µM (purified rat T cells; [4]): 24%

CCNC(=O)NCCN1CCCCC1 [Compound 6]
inhibition at 1000 µM (purified rat T cells; [4]): 33%

CCNC(=O)Nc1cccc2nsnc12 [Compound 7]
inhibition at 1000 µM (purified rat T cells; [4]): 25%

CCNC(=O)NCCCN1CCC(C(=O)c2ccc(Cl)cc2)CC1 [Compound 35]
inhibition at 1000 µM (purified rat T cells; [6]): 55%

CCNC(=O)Nc1nc2cc(C)c(C)cc2[nH]1 [Compound 56, 1-(5,6-dimethyl-1H-benzoimidazol-2-yl)-3-ethyl urea]
inhibition at 10000 µM (IL-6; Conc. 10 mM): 82%
IC50 (IL-6): 3.89 µM
effect on disease onset (ADSS) ([1]; 24 mg/kg daily day 1 to 16, FIG. 2): significant effect
Inhibition (protection of mortality) ([3]; IP 5 mg/kg): 17%
Total Deaths ([3]; IP 5 mg/kg, N 6, 3-day period): 5
Inhibition (protection of mortality) ([3]; IP 25 mg/kg): 50%
response in septic shock model at the highest dose ([3]; IP 25 mg/kg): statistically significant response
Total Deaths ([3]; IP 25 mg/kg, N 6, 3-day period): 3
activity in septic shock model ([3]; IP 25 and 5 mg/kg): dose responsive activity
IC50 (Interferon-γ): 6.49 µM
inhibition at 10000 µM (Interferon-γ; Conc. 10 mM): 57%
inhibition at 10000 µM (IL-5; Conc. 10 mM): 54%
IC50 (IL-5): 9.28 µM
Ave. (colon to 100 g body weight ratio) ([2]; PO 5 mg/kg × 7): 0.678
Inhibition (of net increase of colon to 100 g body weight ratio, relative to vehicle with DNBS) ([2]; PO 5 mg/kg × 7): 12%
Net Inc. (net increase of colon to 100 g body weight ratio) ([2]; PO 5 mg/kg × 7): 0.381
response in IBD model at the highest dose ([2]; PO 25 mg/kg): statistically significant response
Ave. (colon to 100 g body weight ratio) ([2]; PO 25 mg/kg × 7): 0.585
Inhibition (of net increase of colon to 100 g body weight ratio, relative to vehicle with DNBS) ([2]; PO 25 mg/kg × 7): 34%
Net Inc. (net increase of colon to 100 g body weight ratio) ([2]; PO 25 mg/kg × 7): 0.288
activity in IBD model ([2]; PO 25 and 5 mg/kg): dose responsive activity
IC50 (TNF-α): 1.94 µM
inhibition at 10000 µM (TNF-α; Conc. 10 mM): 89%
inhibition at 10000 µM (IL-10; Conc. 10 mM): 63%
IC50 (IL-10): 5.74 µM
IC50 (NF-κB): 9.65 µM
inhibition at 10000 µM (NF-κB; Conc. 10 mM): 52%
inhibition at 10000 µM (IL-1β; Conc. 10 mM): 91%
IC50 (IL-1β): 2.06 µM

CN(C)CCCNC(=O)NCc1csc2ccccc12 [Compound 54]
inhibition at 1000 µM (purified rat T cells; [5]): 16%

CCNC(=O)NC(C)(C)CC(C)=O [Compound 12]
inhibition at 1000 µM (purified rat T cells; [4]): 35%

CCNC(=O)NN1CCCC1 [Compound 9]
inhibition at 1000 µM (purified rat T cells; [4]): 16%

CN(C)CCCNC(=O)NC1Cc2ccccc2C1 [Compound 45]
inhibition at 1000 µM (purified rat T cells; [5]): 20%

CCNC(=O)NCC(C)(C)C [Compound 25]
inhibition at 1000 µM (purified rat T cells; [4]): 60%

CCNC(=O)NC1CCN(C(=O)OCC)CC1 [Compound 13]
inhibition at 1000 µM (purified rat T cells; [4]): 35%

CCNC(=O)NCCCN1CCN(c2cc(C)ccc2C)CC1 [Compound 39]
inhibition at 1000 µM (purified rat T cells; [6]): 23%

CCCNCCCNC(=O)NCC [Compound 17]
inhibition at 1000 µM (purified rat T cells; [4]): 25%

CCNC(=O)Nc1nc2ccccc2s1 [Compound 8]
inhibition at 1000 µM (purified rat T cells; [4]): 22%

CC(=O)OCC(=O)[C@@]1(O)[C@H](C)C[C@H]2[C@@H]3CCC4=CC(=O)C=C[C@]4(C)[C@@]3(F)[C@@H](O)C[C@@]21C [Dexamethasone-21-acetate, reference compound]
Inhibition (protection of mortality) ([3]; 1 mg/kg PO dose): 100%
Total Deaths ([3]; 1 mg/kg PO dose, N 4, 3-day period): 0

CCNC(=O)NCCCN1CCN(C/C=C\c2ccccc2)CC1 [Compound 37]
inhibition at 1000 µM (purified rat T cells; [6]): 23%

CCNC(=O)Nc1ncnc2[nH]ncc12 [Compound 21]
inhibition at 1000 µM (purified rat T cells; [4]): 95%

CN(C)CCCNC(=O)NCCc1cccc(Cl)c1 [Compound 48]
inhibition at 1000 µM (purified rat T cells; [5]): 26%

CCNC(=O)Nc1nc2cc(C)c(C)cc2[nH]1 [Compound 19, 1-(5,6-dimethyl-1H-benzoimidazol-2-yl)-3-ethyl urea]
inhibition at 1000 µM (purified rat T cells; [4]): 77%

CCNC(=O)NC(C(=O)OCC)C(=O)OCC [Compound 23]
inhibition at 1000 µM (purified rat T cells; [4]): 12%

CCNC(=O)NCc1ccco1 [Compound 2]
inhibition at 1000 µM (purified rat T cells; [4]): 16%

CCNC(=O)NCCCN(CCO)Cc1ccccc1 [Compound 30]
inhibition at 1000 µM (purified rat T cells; [6]): 12%

CN(C)CCCNC(=O)NCCCCO [Compound 41]
inhibition at 1000 µM (purified rat T cells; [5]): 12%

COCCCNC(=O)NCCCN(C)C [Compound 53]
inhibition at 1000 µM (purified rat T cells; [5]): 26%

CCCN(CCCNC(=O)NCC)CC1CC1 [Compound 29]
inhibition at 1000 µM (purified rat T cells; [6]): 23%

CCNC(=O)NCCCN1CCN(c2cccc(C)c2C)CC1 [Compound 31, 1-{3′-[4-(2,3-xylyl)-piperazin-1-yl]-propyl}-3-ethyl urea]
inhibition at 1000 µM (purified rat T cells; [6]): 21%

CCNC(=O)NCCCN1CCSCC1 [Compound 26]
inhibition at 1000 µM (purified rat T cells; [6]): 16%
